Read-outs that look alike come from different tables or passages of the source.
What was measured:
[1] = test system: Cy5-labeled 13-mer (5′ Cy5 TTT GGA CTT CAG G 3′); test: Spectral shift DNA hybridization and van't Hoff analysis; type: binding
Protocol: Chemically synthesized DNA oligonucleotides were obtained from Metabion GmbH (Planegg, Germany). A Cy5-labeled 13-mer including a short poly-T spacer in front of a 10 base-long recognition sequence (sequence 5′ Cy5 TTT GGA CTT CAG G 3′) was designed as target and a complementary 10-mer (sequence 3′ CCT GAA GTC C 5′) as ligand. All other chemicals and reagents used in this study were of the highest available analytic grade.
All dual-emission spectral shift measurements in this work were performed in coated capillaries (cat# MO-K025; NanoTemper Technologies GmbH) using the Monolith X instrument equipped with dual-emission detection optics (NanoTemper Technologies GmbH). The required volume per data point was 10 μL. Environment-sensitive near-infrared dyes with an emission maximum at around 660 nm (e.g., RED 2nd Generation dyes, NanoTemper Technologies GmbH, or Cy5) were used as fluorescent reporters. For each ratiometric reading, the fluorescence was recorded simultaneously at 650 and 670 nm for 5 s (Table 1).
Lyophilized DNA oligonucleotides were resuspended in ddH2O to a concentration of 100 μM. Assay buffer (20 mM sodium phosphate buffer, pH 7.2, 100 mM NaCl, 0.05% TWEEN® 20) was prepared as twofold stock. Cy5-labeled 13-mer was further diluted in twofold assay buffer. Serial dilution of 10-mer was performed in ddH2O. The highest final concentration of 10-mer in the 16-point dilution series was 2 μM and the final concentration of Cy5-labeled 13-mer was 2.5 nM with 20 μL in each sample. For ratiometric fluorescence analysis, the device was adjusted to the desired temperature and samples were incubated for 5 min before starting the measurement. Measurements were performed at 23°C to 37°C in 2°C increments and then repeated in reverse order. Capillaries were sealed with Capillary Sealing Paste (cat# PR-P001; NanoTemper Technologies GmbH) to prevent evaporation.
Ratios of the fluorescence intensities at 670 and 650 nm were calculated automatically within the MO.Control software (NanoTemper Technologies GmbH). For Kd determination, dose–response curves were fitted with a binding model that describes a molecular interaction with a 1:1 stoichiometry according to the law of mass action. In this model, the fraction bound f(cligand) at a given ligand concentration cligand in equilibrium is given as (1) fcligand=cligand+ctarget+Kd−cligand+ctarget+Kd^2−4⋅cligand⋅ctarget/2ctarget
Van't Hoff plots were prepared by plotting the logarithm of the dissociation constant, ln Kd, over the inverse temperature, 1/T. A linear regression was then used to calculate thermodynamic parameters according to (5) ΔH=R⋅slope

GLUT1 = conditions: reported IC50 from cellular assays; cited from earlier work
[2] = target: T1, Carbonic Anhydrase II from bovine erythrocytes (bCA-II) (Bos taurus, UniProt P00921); test: biochemical; type: binding
T1 construct: Carbonic Anhydrase II from bovine erythrocytes; purchased Sigma Aldrich C2522; host or cells: bovine erythrocytes
T1 sequence (P00921 whole entry): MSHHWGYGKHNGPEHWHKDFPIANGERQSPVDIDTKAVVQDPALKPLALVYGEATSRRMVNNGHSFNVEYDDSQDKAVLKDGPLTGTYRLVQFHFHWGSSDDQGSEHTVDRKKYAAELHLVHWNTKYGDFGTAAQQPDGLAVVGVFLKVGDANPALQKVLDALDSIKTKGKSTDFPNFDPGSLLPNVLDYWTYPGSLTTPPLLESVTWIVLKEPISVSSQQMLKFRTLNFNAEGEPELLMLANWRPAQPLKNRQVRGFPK

bCA-II [3] = conditions: literature SPR; cited from earlier work
bCA-II [4] = conditions: literature ITC; cited from earlier work
[5] = van't Hoff analysis, 23°C to 37°C

3′ CCT GAA GTC C 5′ (DNA CCTGAAGTCC; chemistry not fully specified; listed 3' to 5') [10-mer, chemically synthesized DNA 10-mer complementary to the Cy5-labeled 13-mer target]
Kd ([1]; 23 °C): 1.77 ± 0.06 nM | Kd ([1]; 25 °C): 3.35 ± 0.11 nM | Kd ([1]; 27 °C): 6.52 ± 0.17 nM | Kd ([1]; 29 °C): 12.8 ± 0.3 nM | Kd ([1]; 31 °C): 25.4 ± 0.4 nM | Kd ([1]; 33 °C): 50.4 ± 0.7 nM | Kd ([1]; 35 °C): 102 ± 2 nM | Kd ([1]; 37 °C): 198 ± 4 nM | entropy ΔS [1, 5]: −168.5 cal/mol/K | van't Hoff enthalpy ΔH [1, 5]: -61.8 kcal/mol

NS(=O)(=O)c1ccccc1 [Benzenesulfonamide, benzenesulfonamide]
Kd [2]: 502 ± 67 nM | 670 nm/650 nm ratio of labeled bCA-II upon inhibitor binding ([2]; final value, without bound inhibitor 0.884): 0.890 | Kd (bCA-II [3]): 848 nM | Kd (bCA-II [4]): 839 nM
